Laboratory results reported in patent US20150289512A1, “METHOD FOR PROMOTING PLANT GROWTH” (SUMITOMO CHEMICAL COMPANY, LIMITED, priority 2012, published 2015).

Tested on: Nicotiana benthamiana
Test: Test Example 4: growth promotion under low-temperature stress by hydroponics of Nicotiana benthamiana, 10 ppm
Type: in vivo
Conditions: 10 ppm in medium, low-temperature stress 7 days at 1.5±1.0° C., green leaf area 3 days later, equation (1)
In short: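 Nicotiana benthamiana grown 7 days at 22 °C in half-strength Murashige-Skoog medium, pH 5.8, with compound at 10 ppm (DMSO 1/1,000 v/v), chilled 7 days at 1.5±1.0 °C, recovered 3 days at 22 °C. Green leaf area expressed relative to stressed and unstressed DMSO controls; ≥5 scored as mitigating.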

Row | Compound | relative leaf area at 10 ppm [%]
1 | O=C(O)c1nc2c(F)cc(F)cc2s1 [Compound 86] | ≥ 5
2 | CCOC(=O)c1cc2c(C(F)(F)F)cccc2o1 [Compound 44] | ≥ 5
3 | COC(=O)c1oc2ccc(C(F)(F)F)cc2c1NC(=O)C(F)(F)F [Compound 65] | ≥ 5
4 | O=C(Nc1ccccc1)c1cc2cc(C(F)(F)F)ccc2o1 [Compound 53] | ≥ 5
5 | O=C(O)c1oc2ccccc2c1C(F)(F)F [Compound 82] | ≥ 5
6 | COC(=O)c1oc2ccc(C(F)(F)F)cc2c1NC(C)=O [Compound 63] | ≥ 5
7 | COC(=O)c1oc2ccccc2c1N(C(C)=O)C(C)=O [Compound 41] | ≥ 5
8 | NC(=O)c1cc2cc(C(F)(F)F)ccc2o1 [Compound 51] | ≥ 5
9 | COC(=O)c1oc2ccccc2c1C(F)(F)F [Compound 83] | ≥ 5
10 | CNC(=O)c1oc2ccc(C(F)(F)F)cc2c1C(F)(F)F [Compound 75] | ≥ 5
11 | CCOC(=O)c1oc2ccc(C(F)(F)F)cc2c1C(F)(F)F [Compound 71] | ≥ 5
12 | NC(=O)c1oc2ccc(C(F)(F)F)cc2c1C(F)(F)F [Compound 74] | ≥ 5
13 | COC(=O)c1oc2ccccc2c1NC(C)=O [Compound 40] | ≥ 5
14 | O=C(OCc1ccccc1)c1cc2cc(C(F)(F)F)ccc2o1 [Compound 56] | ≥ 5
15 | COC(=O)c1oc2ccc(C(F)(F)F)cc2c1N(C)C [Compound 62] | ≥ 5
16 | COC(=O)c1cc2ccccc2o1 [Compound 1] | ≥ 5
17 | O=C(OCc1ccccc1)c1oc2ccc(C(F)(F)F)cc2c1C(F)(F)F [Compound 73] | ≥ 5
18 | COC(=O)c1oc2ccc(C(F)(F)F)cc2c1C [Compound 33] | ≥ 5
19 | O=C(O)c1cc2cc(Br)ccc2o1 [Compound 79] | ≥ 5
20 | O=C(NCc1ccccc1)c1cc2cc(C(F)(F)F)ccc2o1 [Compound 54] | ≥ 5
21 | O=C(NCc1ccccc1)c1oc2ccc(C(F)(F)F)cc2c1C(F)(F)F [Compound 77] | ≥ 5
22 | O=C(Oc1ccccc1)c1cc2cc(C(F)(F)F)ccc2o1 [Compound 55] | ≥ 5
23 | COC(=O)c1oc2ccc(C(F)(F)F)cc2c1N(C(C)=O)C(C)=O [Compound 64] | ≥ 5
24 | COC(=O)c1oc2ccccc2c1NC(=O)C(F)(F)F [Compound 39] | ≥ 5
25 | COC(=O)c1oc2ccc(C(F)(F)F)cc2c1NS(C)(=O)=O [Compound 67] | ≥ 5
26 | Cc1c(C(=O)O)oc2ccc(C(F)(F)F)cc12 [Compound 34] | ≥ 5
27 | O=C(O)c1cc2c(C(F)(F)F)cccc2o1 [Compound 43] | ≥ 5
28 | O=C(O)c1oc2ccc(C(F)(F)F)cc2c1C(F)(F)F [Compound 69] | ≥ 5
